# Results published in patent US20250296938A1, “Compounds that Interact with the Ras Superfamily for the Treatment of Cancers, Inflammatory Diseases, Rasopathies, and Fibrotic Disease” (SHY Therapeutics, LLC, priority 2018, published 2025).
# Like-named read-outs stand apart in the source and are kept apart here.
# Key:
# Test in all cases: Ras GTP binding domain inhibition assay (Cy3-GTP/Cy5-GTP competition)
# KRas G12C mutant = test system: KRas G12C mutant; design: species or system human; settings: 20 μM
# Method in brief: (§1)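 His-tagged Ras proteins were captured on nickel-coated wells in Buffer-I (25 mM Tris-HCl pH 7.4, 27 mM KCl, 137 mM NaCl, 1 mM MgCl2, 1 mM DTT) or Buffer-II (50 mM Tris-HCl pH 7.0). Compounds (20 μM or serial dilution, 1% DMSO) were incubated 3 h at RT, ±Sos(556-1049) in the final hour. Bound Cy3-/Cy5-GTP (100 nM, 45 min) was read after washing.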
# KRas Q61H mutant = test system: KRas Q61H mutant; design: species or system human; settings: 20 μM
# Method in brief: as §1
# KRas wild type = test system: KRas wild type; design: species or system human; settings: 20 μM; for KRas wild type: % inh.: without SOS; for KRas wild type % inh.: without SOS (Table 7A)
# Method in brief: as §1
# KRas G12D mutant = molecular target: T1, KRas G12D mutant (Homo sapiens, UniProt P01116, G12D); settings: 20 μM
# T1 construct: fused on or other part: His tag, used for capture on nickel-coated plates
# Method in brief: as §1
# [1] = with SOS, read-out: KRas G-12D mutant + SOS: % inh.
# [2] = without SOS, read-out: KRas G12D mutant: % inh.
# [3] = with SOS (Table 7A), read-out: KRas G12D mutant + SOS: % inh.
# [4] = without SOS (Table 7A), read-out: KRas G12D mutant: % inh.
Structure (SMILES),KRas G12C mutant + SOS: % inh. (KRas G12C mutant; with SOS),KRas G12C mutant: % inh. (KRas G12C mutant; without SOS),KRas Q61H mutant + SOS: % inh. (KRas Q61H mutant; with SOS),KRas Q61H mutant: % inh. (KRas Q61H mutant; without SOS),KRas wild type + SOS: % inh. (KRas wild type; with SOS),KRas wild type: % inh. (KRas wild type),inhibition at 20 µM (KRas G12D mutant; [1]),inhibition at 20 µM (KRas G12D mutant; [2]),KRas G12C mutant + SOS: % inh. (KRas G12C mutant; with SOS (Table 7A)),KRas G12C mutant: % inh. (KRas G12C mutant; without SOS (Table 7A)),KRas Q61H mutant + SOS: % inh. (KRas Q61H mutant; with SOS (Table 7A)),KRas Q61H mutant: % inh. (KRas Q61H mutant; without SOS (Table 7A)),KRas wild type + SOS: % inh. (KRas wild type; with SOS (Table 7A)),KRas wild type % inh. (KRas wild type),inhibition at 20 µM (KRas G12D mutant; [3]),inhibition at 20 µM (KRas G12D mutant; [4])
COCCCN(C)c1nc(-c2nccn2C)nc2sc(-c3ccn(C)n3)c(-c3ccccc3)c12 [drawing 865],B (26-50% inhibition),A (1-25% inhibition),B (26-50% inhibition),A (1-25% inhibition),B (26-50% inhibition),A (1-25% inhibition),26 to 50%,51 to 75%,–,–,–,–,–,–,–,–
COCCCNc1nc(-c2nccn2C)nc2sc(-c3ccn(C)n3)c(-c3ccccc3)c12 [drawing 866],B (26-50% inhibition),A (1-25% inhibition),B (26-50% inhibition),B (26-50% inhibition),C (51-75% inhibition),C (51-75% inhibition),26 to 50%,1 to 25%,–,–,–,–,–,–,–,–
COc1cccc(-c2sc3nc(-c4nccn4C)nc(N4CCC(OC)C4)c3c2-c2cscn2)c1 (centres unmarked) [drawing 867],D (76-100% inhibition),0 (0% inhibition),D (76-100% inhibition),A (1-25% inhibition),D (76-100% inhibition),A (1-25% inhibition),51 to 75%,1 to 25%,–,–,–,–,–,–,–,–
COc1ccc(-c2c(-c3ccn(C)n3)sc3nc(-c4nccn4C)nc(N4CCC(OC)C4)c23)cc1 (centres unmarked) [drawing 868],A (1-25% inhibition),0 (0% inhibition),B (26-50% inhibition),A (1-25% inhibition),A (1-25% inhibition),0 (0% inhibition),1 to 25%,0%,–,–,–,–,–,–,–,–
COCC(C)Nc1nc(-c2nccn2C)nc2sc(-c3ccn(C)n3)c(-c3ccc(OC)cc3)c12 (centres unmarked) [drawing 869],A (1-25% inhibition),0 (0% inhibition),A (1-25% inhibition),A (1-25% inhibition),A (1-25% inhibition),A (1-25% inhibition),1 to 25%,0%,–,–,–,–,–,–,–,–
COCCCNc1nc(-c2nccn2C)nc2sc(-c3ccn(C)n3)c(-c3ccc(OC)cc3)c12 [drawing 870],A (1-25% inhibition),0 (0% inhibition),A (1-25% inhibition),A (1-25% inhibition),0 (0% inhibition),A (1-25% inhibition),1 to 25%,0%,–,–,–,–,–,–,–,–
COCCNc1nc(-c2nccn2C)nc2sc(-c3cc(OC)ccc3Cl)c(-c3ccccc3)c12 [drawing 871],A (1-25% inhibition),0 (0% inhibition),A (1-25% inhibition),C (51-75% inhibition),A (1-25% inhibition),B (26-50% inhibition),1 to 25%,26 to 50%,–,–,–,–,–,–,–,–
COCCNc1nc(-c2nccn2C)nc2sc(-c3cccc(OC)c3Cl)c(-c3ccccc3)c12 [drawing 872],D (76-100% inhibition),C (51-75% inhibition),D (76-100% inhibition),B (26-50% inhibition),D (76-100% inhibition),B (26-50% inhibition),76 to 100%,1 to 25%,–,–,–,–,–,–,–,–
COCCNc1nc(-c2cn(C)cn2)nc2sc(-c3ccccc3Cl)c(-c3ccc(OC)cc3)c12 [drawing 873],D (76-100% inhibition),C (51-75% inhibition),D (76-100% inhibition),B (26-50% inhibition),D (76-100% inhibition),A (1-25% inhibition),76 to 100%,26 to 50%,–,–,–,–,–,–,–,–
COCCNc1nc(-c2nccn2C)nc2sc(-c3cccc(OC)c3Cl)c(-c3ccc(OC)cc3)c12 [drawing 874],D (76-100% inhibition),B (26-50% inhibition),D (76-100% inhibition),A (1-25% inhibition),D (76-100% inhibition),B (26-50% inhibition),51 to 75%,1 to 25%,–,–,–,–,–,–,–,–
COCCNc1nc(-c2nccn2C)nc2sc(-c3cccc(OC)c3)c(-c3ccc(OC)cc3)c12 [drawing 875],D (76-100% inhibition),C (51-75% inhibition),D (76-100% inhibition),B (26-50% inhibition),D (76-100% inhibition),B (26-50% inhibition),76 to 100%,51 to 75%,–,–,–,–,–,–,–,–
COCCNc1nc(-c2nccn2C)nc2sc(-c3ccccc3Cl)c(-c3ccc(OC)cc3)c12 [drawing 876],D (76-100% inhibition),B (26-50% inhibition),D (76-100% inhibition),B (26-50% inhibition),D (76-100% inhibition),B (26-50% inhibition),76 to 100%,26 to 50%,–,–,–,–,–,–,–,–
COCCNc1nc(-c2nccn2C)nc2sc(-c3cc(OC)ccc3Cl)c(-c3ccc(OC)cc3)c12 [drawing 877],C (51-75% inhibition),A (1-25% inhibition),D (76-100% inhibition),A (1-25% inhibition),D (76-100% inhibition),A (1-25% inhibition),26 to 50%,1 to 25%,–,–,–,–,–,–,–,–
COc1cccc(-c2csc3c(O)nc(-c4nccn4C)nc23)c1Cl [drawing 878],A (1-25% inhibition),A (1-25% inhibition),A (1-25% inhibition),A (1-25% inhibition),A (1-25% inhibition),A (1-25% inhibition),1 to 25%,1 to 25%,–,–,–,–,–,–,–,–
COc1c(O)nc(-c2ccccn2)nc1Oc1ccc(C(=O)N(C)C)cc1 [drawing 879],–,–,–,–,–,–,–,–,A (1-25% inhibition),B (26-50% inhibition),B (26-50% inhibition),B (26-50% inhibition),A (1-25% inhibition),B (26-50% inhibition),26 to 50%,51 to 75%
COc1c(O)nc(-c2ccccn2)nc1Nc1ccccc1 [drawing 880],–,–,–,–,–,–,–,–,B (26-50% inhibition),C (51-75% inhibition),C (51-75% inhibition),C (51-75% inhibition),B (26-50% inhibition),C (51-75% inhibition),26 to 50%,26 to 50%
CCn1cc(Nc2nc(-c3ccccn3)nc(O)c2OC)cn1 [drawing 881],–,–,–,–,–,–,–,–,B (26-50% inhibition),C (51-75% inhibition),B (26-50% inhibition),A (1-25% inhibition),B (26-50% inhibition),C (51-75% inhibition),26 to 50%,26 to 50%
CCOc1cccc(Nc2nc(-c3ccccn3)nc(O)c2OC)c1 [drawing 882],–,–,–,–,–,–,–,–,C (51-75% inhibition),C (51-75% inhibition),C (51-75% inhibition),C (51-75% inhibition),B (26-50% inhibition),C (51-75% inhibition),26 to 50%,51 to 75%
COc1cccc(-c2sc3nc(-c4nccn4C)nc(NC4CCC(OC)C4)c3c2-c2ccccc2)c1F (centres unmarked) [drawing 883],–,–,–,–,–,–,–,–,D (76-100% inhibition),B (26-50% inhibition),D (76-100% inhibition),C (51-75% inhibition),D (76-100% inhibition),C (51-75% inhibition),51 to 75%,26 to 50%
